Test results: PubChem BioAssay (NCI)
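In this assay, cells in 96-well plates receive the compound at five concentrations for 48 hours. Endpoints are linearly interpolated between the surrounding concentrations. GI50 = concentration required for 50% inhibition of growth. TGI marks complete inhibition of growth.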

Legend:
Experiment in all cases: growth of human tumour cells (NCI), 48 h
786-0 renal = tested on: 786-0 renal
A498 renal = tested on: A498 renal
A549 NSCLC = tested on: A549 NSCLC
ACHN renal = tested on: ACHN renal
BT-549 breast = tested on: BT-549 breast
CAKI-1 renal = tested on: CAKI-1 renal
CCRF-CEM leukemia = tested on: CCRF-CEM leukemia
COLO 205 colon = tested on: COLO 205 colon
DU-145 prostate = tested on: DU-145 prostate
EKVX NSCLC = tested on: EKVX NSCLC
HCC-2998 colon = tested on: HCC-2998 colon
HCT-116 colon = tested on: HCT-116 colon
HCT-15 colon = tested on: HCT-15 colon
HL-60(TB) leukemia = tested on: HL-60(TB) leukemia
HOP-62 NSCLC = tested on: HOP-62 NSCLC
HOP-92 NSCLC = tested on: HOP-92 NSCLC
HS 578T breast = tested on: HS 578T breast
HT29 colon = tested on: HT29 colon
IGROV1 ovarian = tested on: IGROV1 ovarian
K-562 leukemia = tested on: K-562 leukemia
KM12 colon = tested on: KM12 colon
LOX IMVI melanoma = tested on: LOX IMVI melanoma
M14 melanoma = tested on: M14 melanoma
MCF7 breast = tested on: MCF7 breast
MDA-MB-231 breast = tested on: MDA-MB-231 breast
MDA-MB-435 = tested on: MDA-MB-435
NCI-H226 lung = tested on: NCI-H226 lung
NCI-H23 lung = tested on: NCI-H23 lung
NCI-H460 lung = tested on: NCI-H460 lung
NCI-H522 lung = tested on: NCI-H522 lung
NCI/ADR-RES ovarian = tested on: NCI/ADR-RES ovarian
OVCAR-3 ovarian = tested on: OVCAR-3 ovarian
OVCAR-5 ovarian = tested on: OVCAR-5 ovarian
OVCAR-8 ovarian = tested on: OVCAR-8 ovarian
PC-3 prostate = tested on: PC-3 prostate
RPMI-8226 leukemia = tested on: RPMI-8226 leukemia
RXF 393 renal = tested on: RXF 393 renal
SF-268 CNS = tested on: SF-268 CNS
SF-295 CNS = tested on: SF-295 CNS
SF-539 CNS = tested on: SF-539 CNS
SK-MEL-2 melanoma = tested on: SK-MEL-2 melanoma
SK-MEL-28 melanoma = tested on: SK-MEL-28 melanoma
SK-MEL-5 melanoma = tested on: SK-MEL-5 melanoma
SK-OV-3 ovarian = tested on: SK-OV-3 ovarian
SN12C renal = tested on: SN12C renal
SNB-19 CNS = tested on: SNB-19 CNS
SNB-75 CNS = tested on: SNB-75 CNS
SW-620 colon = tested on: SW-620 colon
T-47D breast = tested on: T-47D breast
TK-10 renal = tested on: TK-10 renal
U251 CNS = tested on: U251 CNS
UACC-257 melanoma = tested on: UACC-257 melanoma
UACC-62 melanoma = tested on: UACC-62 melanoma
UO-31 renal = tested on: UO-31 renal

Question: Which results are given for `CCOC(=O)C1=C(C)NC2SC(=O)/C(=C\c3ccccc3Cl)N2C1c1ccccc1` (stereo not drawn)?
Answer: GI50 (786-0 renal): > 100 µM; TGI (786-0 renal): > 100 µM; GI50 (A498 renal): > 100 µM; TGI (A498 renal): > 100 µM; GI50 (A549 NSCLC): > 100 µM; TGI (A549 NSCLC): > 100 µM; GI50 (ACHN renal): > 100 µM; TGI (ACHN renal): > 100 µM; GI50 (BT-549 breast): > 100 µM; TGI (BT-549 breast): > 100 µM; GI50 (CAKI-1 renal): > 100 µM; TGI (CAKI-1 renal): > 100 µM; GI50 (CCRF-CEM leukemia): > 100 µM; TGI (CCRF-CEM leukemia): > 100 µM; GI50 (COLO 205 colon): > 100 µM; TGI (COLO 205 colon): > 100 µM; GI50 (DU-145 prostate): > 100 µM; TGI (DU-145 prostate): > 100 µM; GI50 (EKVX NSCLC): > 100 µM; TGI (EKVX NSCLC): > 100 µM; GI50 (HCC-2998 colon): > 100 µM; TGI (HCC-2998 colon): > 100 µM; GI50 (HCT-116 colon): > 100 µM; TGI (HCT-116 colon): > 100 µM; GI50 (HCT-15 colon): > 100 µM; TGI (HCT-15 colon): > 100 µM; GI50 (HL-60(TB) leukemia): 59.5 µM; TGI (HL-60(TB) leukemia): > 100 µM; GI50 (HOP-62 NSCLC): > 100 µM; TGI (HOP-62 NSCLC): > 100 µM; GI50 (HOP-92 NSCLC): > 100 µM; TGI (HOP-92 NSCLC): > 100 µM; GI50 (HS 578T breast): > 100 µM; TGI (HS 578T breast): > 100 µM; GI50 (HT29 colon): > 100 µM; TGI (HT29 colon): > 100 µM; GI50 (IGROV1 ovarian): > 100 µM; TGI (IGROV1 ovarian): > 100 µM; GI50 (K-562 leukemia): > 100 µM; TGI (K-562 leukemia): > 100 µM; GI50 (KM12 colon): > 100 µM; TGI (KM12 colon): > 100 µM; GI50 (LOX IMVI melanoma): > 100 µM; TGI (LOX IMVI melanoma): > 100 µM; GI50 (M14 melanoma): > 100 µM; TGI (M14 melanoma): > 100 µM; GI50 (MCF7 breast): > 100 µM; TGI (MCF7 breast): > 100 µM; GI50 (MDA-MB-231 breast): > 100 µM; TGI (MDA-MB-231 breast): > 100 µM; GI50 (MDA-MB-435): > 100 µM; TGI (MDA-MB-435): > 100 µM; GI50 (NCI-H226 lung): > 100 µM; TGI (NCI-H226 lung): > 100 µM; GI50 (NCI-H23 lung): > 100 µM; TGI (NCI-H23 lung): > 100 µM; GI50 (NCI-H460 lung): > 100 µM; TGI (NCI-H460 lung): > 100 µM; GI50 (NCI-H522 lung): > 100 µM; TGI (NCI-H522 lung): > 100 µM; GI50 (NCI/ADR-RES ovarian): > 100 µM; TGI (NCI/ADR-RES ovarian): > 100 µM; GI50 (OVCAR-3 ovarian): > 100 µM; TGI (OVCAR-3 ovarian): > 100 µM; GI50 (OVCAR-5 ovarian): > 100 µM; TGI (OVCAR-5 ovarian): > 100 µM; GI50 (OVCAR-8 ovarian): > 100 µM; TGI (OVCAR-8 ovarian): > 100 µM; GI50 (PC-3 prostate): 73.3 µM; TGI (PC-3 prostate): > 100 µM; GI50 (RPMI-8226 leukemia): 79.7 µM; TGI (RPMI-8226 leukemia): > 100 µM; GI50 (RXF 393 renal): > 100 µM; TGI (RXF 393 renal): > 100 µM; GI50 (SF-268 CNS): > 100 µM; TGI (SF-268 CNS): > 100 µM; GI50 (SF-295 CNS): > 100 µM; TGI (SF-295 CNS): > 100 µM; GI50 (SF-539 CNS): > 100 µM; TGI (SF-539 CNS): > 100 µM; GI50 (SK-MEL-2 melanoma): > 100 µM; TGI (SK-MEL-2 melanoma): > 100 µM; GI50 (SK-MEL-28 melanoma): > 100 µM; TGI (SK-MEL-28 melanoma): > 100 µM; GI50 (SK-MEL-5 melanoma): 50.2 µM; TGI (SK-MEL-5 melanoma): > 100 µM; GI50 (SK-OV-3 ovarian): > 100 µM; TGI (SK-OV-3 ovarian): > 100 µM; GI50 (SN12C renal): > 100 µM; TGI (SN12C renal): > 100 µM; GI50 (SNB-19 CNS): > 100 µM; TGI (SNB-19 CNS): > 100 µM; GI50 (SNB-75 CNS): > 100 µM; TGI (SNB-75 CNS): > 100 µM; GI50 (SW-620 colon): > 100 µM; TGI (SW-620 colon): > 100 µM; GI50 (T-47D breast): 33.8 µM; TGI (T-47D breast): > 100 µM; GI50 (TK-10 renal): > 100 µM; TGI (TK-10 renal): > 100 µM; GI50 (U251 CNS): > 100 µM; TGI (U251 CNS): > 100 µM; GI50 (UACC-257 melanoma): > 100 µM; TGI (UACC-257 melanoma): > 100 µM; GI50 (UACC-62 melanoma): > 100 µM; TGI (UACC-62 melanoma): > 100 µM; GI50 (UO-31 renal): > 100 µM; TGI (UO-31 renal): > 100 µM
